Results reported in patent US10792289B2 (Horizon Orphan LLC, priority 2009, dated 2020).

Test system: non-fermenting gram negative bacilli (NFGNB), excluding P. aeruginosa
Test: Phase 2 study: non-fermenting gram negative bacilli density in sputum
Type: in vivo
Method: The following dosage regimens (as nebulizer loaded doses) were evaluated: 120 mg QD (daily); 240 mg QD (daily); and 240 mg BID (twice daily). Based on aerosol characterization studies of the 100 mg/ml formulation, these loaded doses of 120 and 240 mg correspond estimated respirable delivered doses (RDDs) using a PART eFlow nebulizer of about 65 and 130 mg, respectively.
Patients were assessed on Day 1, 7, 14, and 28, and then up to 28 days after completion of study drug, namely, Days 42 and 56. The end of the study was defined as the last visit of the last patient. Study populations included: (1) safety/modified intent to treat (MITT) population which included all patients enrolled in the study that receive at least one dose of study drug; (2) efficacy evaluable (EE) population which included all patients enrolled in the study without major protocol violations that receive at least 80% of study drug doses during the 28 days of study drug therapy; and (3) pharmacokinetic (PK) population which included all patients that receive at least one dose of study drug and have at least one PK blood sample collected.
Changes in P. aeruginosa density (log lo CFU/g sputum) for sputum samples taken from the EE and MITT populations are summarized in Tables 10 and 11, respectively (SD=standard deviation). […] Tables 18 and 19 summarize changes in non-fermenting gram negative bacilli density (NFGNB), excluding P. aeruginosa, with only patients with positive NFGNB counts at baseline, for EE and MITT populations, respectively. Tables 20 and 21 summarize changes for presumptive S. aureus density (log10 CFU/g sputum) for only patients with positive S. aureus counts at baseline, for EE and MITT populations, respectively.

[1] = EE population, Combined 240 mg QD and BID
[2] = EE population, Combined Levofloxacin

## C[C@H]1COc2c(N3CCN(C)CC3)c(F)cc3c(=O)c(C(=O)O)cn1c23 [Levofloxacin, levofloxacin]
EE population, 120 mg QD
  NFGNB density, Change from Baseline to Day 7, Mean: −1.15 log10 CFU/g sputum
  NFGNB density, Day 1, Mean: 5.69 log10 CFU/g sputum
  NFGNB density, Day 7, Mean: 4.54 log10 CFU/g sputum
  NFGNB density, Day 14, Mean: 3.15 log10 CFU/g sputum
  NFGNB density, Day 28, Mean: 5.10 log10 CFU/g sputum
EE population, 120 mg QD, Day 14
  NFGNB density, Change from Baseline to Day 28, Mean: −2.54 log10 CFU/g sputum
EE population, 120 mg QD, Day 28
  NFGNB density, Change from Baseline to Day 28, Mean: −1.44 log10 CFU/g sputum
EE population, 240 mg BID
  NFGNB density, Change from Baseline to Day 7, Mean: −0.51 log10 CFU/g sputum
  NFGNB density, Day 1, Mean: 5.52 log10 CFU/g sputum
  NFGNB density, Day 7, Mean: 5.01 log10 CFU/g sputum
  NFGNB density, Day 14, Mean: 6.02 log10 CFU/g sputum
  NFGNB density, Day 28, Mean: 5.01 log10 CFU/g sputum
EE population, 240 mg BID, Day 14
  NFGNB density, Change from Baseline to Day 28, Mean: 0.50 log10 CFU/g sputum
EE population, 240 mg BID, Day 28
  NFGNB density, Change from Baseline to Day 28, Mean: −0.51 log10 CFU/g sputum
EE population, 240 mg QD
  NFGNB density, Change from Baseline to Day 7, Mean: −2.47 log10 CFU/g sputum
  NFGNB density, Day 1, Mean: 4.65 log10 CFU/g sputum
  NFGNB density, Day 7, Mean: 2.18 log10 CFU/g sputum
  NFGNB density, Day 14, Mean: 2.04 log10 CFU/g sputum
  NFGNB density, Day 28, Mean: 1.36 log10 CFU/g sputum
EE population, 240 mg QD, Day 14
  NFGNB density, Change from Baseline to Day 28, Mean: −2.61 log10 CFU/g sputum
EE population, 240 mg QD, Day 28
  NFGNB density, Change from Baseline to Day 28, Mean: −3.29 log10 CFU/g sputum
[1]
  NFGNB density, Change from Baseline to Day 7, Mean: −1.60 log10 CFU/g sputum
  NFGNB density, Day 1, Mean: 5.03 log10 CFU/g sputum
  NFGNB density, Day 7, Mean: 3.44 log10 CFU/g sputum
  NFGNB density, Day 14, Mean: 3.80 log10 CFU/g sputum
  NFGNB density, Day 28, Mean: 2.98 log10 CFU/g sputum
EE population, Combined 240 mg QD and BID, Day 14
  NFGNB density, Change from Baseline to Day 28, Mean: −1.23 log10 CFU/g sputum
EE population, Combined 240 mg QD and BID, Day 28
  NFGNB density, Change from Baseline to Day 28, Mean: −2.05 log10 CFU/g sputum
[2]
  NFGNB density, Change from Baseline to Day 7, Mean: −1.44 log10 CFU/g sputum
  NFGNB density, Day 1, Mean: 5.27 log10 CFU/g sputum
  NFGNB density, Day 7, Mean: 3.83 log10 CFU/g sputum
  NFGNB density, Day 14, Mean: 3.57 log10 CFU/g sputum
  NFGNB density, Day 28, Mean: 3.63 log10 CFU/g sputum
EE population, Combined Levofloxacin, Day 14
  NFGNB density, Change from Baseline to Day 28, Mean: −1.70 log10 CFU/g sputum
EE population, Combined Levofloxacin, Day 28
  NFGNB density, Change from Baseline to Day 28, Mean: −1.87 log10 CFU/g sputum
MITT population, 120 mg QD
  NFGNB density, Change from Baseline to Day 7, Mean: −1.15 log10 CFU/g sputum
  NFGNB density, Day 1, Mean: 5.69 log10 CFU/g sputum
  NFGNB density, Day 7, Mean: 4.54 log10 CFU/g sputum
  NFGNB density, Day 14, Mean: 3.25 log10 CFU/g sputum
  NFGNB density, Day 28, Mean: 5.10 log10 CFU/g sputum
MITT population, 120 mg QD, Day 14
  NFGNB density, Change from Baseline to Day 28, Mean: −2.54 log10 CFU/g sputum
MITT population, 120 mg QD, Day 28
  NFGNB density, Change from Baseline to Day 28, Mean: −1.44 log10 CFU/g sputum
MITT population, 240 mg BID
  NFGNB density, Change from Baseline to Day 7, Mean: −0.42 log10 CFU/g sputum
  NFGNB density, Day 1, Mean: 6.05 log10 CFU/g sputum
